From the NIST ThermoML archive (doi:10.1021/acs.jced.7b00939)
Values joined by “and” are separate entries in the source; they are usually repeats but may differ in a detail not shown here. Equal values may be shown once.

Conditions: Liquid, Vibrating tube method

CCCCC(CC)COC(=O)c1ccc(C(=O)OCC(CC)CCCC)c(C(=O)OCC(CC)CCCC)c1 (stereo unspecified) [tris(2-ethylhexyl) trimellitate]
Conditions	mass density
328.15 K, 5110 kPa	965.697 kg/m3
328.15 K, 10110 kPa	968.884 kg/m3
328.15 K, 20120 kPa	974.939 kg/m3
328.15 K, 30110 kPa	980.701 kg/m3
333.15 K, 100 kPa	959.014 kg/m3 [middle of 4 runs]
353.15 K, 100 kPa	944.616 kg/m3 [middle of 4 runs]
363.15 K, 100 kPa	937.285 kg/m3 and 937.369 kg/m3
363.15 K, 5110 kPa	941.043 kg/m3
363.15 K, 10110 kPa	944.715 kg/m3
363.15 K, 20120 kPa	951.677 kg/m3
363.15 K, 30130 kPa	958.176 kg/m3
363.15 K, 40130 kPa	964.291 kg/m3
363.15 K, 50140 kPa	969.983 kg/m3
373.15 K, 100 kPa	930.229 kg/m3 and 930.252 kg/m3
383.15 K, 100 kPa	923.009 kg/m3 and 923.041 kg/m3 and 923.028 kg/m3
388.15 K, 100 kPa	919.579 kg/m3
388.15 K, 2640 kPa	921.672 kg/m3
388.15 K, 5170 kPa	923.804 kg/m3
388.15 K, 7730 kPa	925.892 kg/m3
388.15 K, 10170 kPa	927.866 kg/m3
388.15 K, 15260 kPa	931.875 kg/m3
388.15 K, 20280 kPa	935.659 kg/m3
388.15 K, 30390 kPa	942.915 kg/m3
388.15 K, 40500 kPa	949.605 kg/m3
388.15 K, 50560 kPa	955.87 kg/m3
388.15 K, 68700 kPa	966.125 kg/m3
393.15 K, 100 kPa	915.76 kg/m3 and 915.768 kg/m3
403.15 K, 100 kPa	908.475 kg/m3 and 908.487 kg/m3 and 908.679 kg/m3
403.15 K, 2640 kPa	910.921 kg/m3
403.15 K, 5110 kPa	912.879 kg/m3
403.15 K, 5170 kPa	913.199 kg/m3
403.15 K, 7690 kPa	915.392 kg/m3
403.15 K, 10110 kPa	917.229 kg/m3
403.15 K, 10220 kPa	917.585 kg/m3
403.15 K, 15270 kPa	921.805 kg/m3
403.15 K, 20110 kPa	925.405 kg/m3
403.15 K, 20320 kPa	925.852 kg/m3
403.15 K, 30120 kPa	932.929 kg/m3
403.15 K, 30380 kPa	933.471 kg/m3
403.15 K, 40120 kPa	939.962 kg/m3
403.15 K, 40430 kPa	940.482 kg/m3
403.15 K, 50130 kPa	946.45 kg/m3
403.15 K, 50540 kPa	947.085 kg/m3
403.15 K, 68140 kPa	957.148 kg/m3
403.15 K, 68470 kPa	957.846 kg/m3
413.15 K, 100 kPa	901.142 kg/m3 and 901.152 kg/m3
423.15 K, 100 kPa	893.777 kg/m3 and 893.78 kg/m3
423.15 K, 2590 kPa	896.162 kg/m3
423.15 K, 5100 kPa	898.654 kg/m3
423.15 K, 7590 kPa	901.053 kg/m3
423.15 K, 10100 kPa	903.407 kg/m3
423.15 K, 20110 kPa	912.286 kg/m3
423.15 K, 30120 kPa	920.442 kg/m3
423.15 K, 40120 kPa	927.911 kg/m3
423.15 K, 50120 kPa	934.915 kg/m3
423.15 K, 68140 kPa	946.287 kg/m3
